PMC9609429 (Pharmaceuticals, 2022)

Tests used:
α1-adrenoceptor = α1-adrenoceptor radioligand binding assay ([3H]-prazosin, rat cerebral cortex); details: rat cortex tissue
Description: The α1-, α2-, and β1-adrenoceptor radioligand binding assay was carried out on the rat cerebral cortex. [^3H]-prazosin (19.5 Ci/mmol, α1-adrenoceptor), [^3H]-clonidine (70.5 Ci/mmol, α2-adrenoceptor), and [^3H]-CGP-12177 (48 Ci/mmol, β1-adrenergic receptor) were used as specific ligands. The brains were homogenized using ULTRA-TURRAX homogenizer in 10 mL of an ice-cold 50 mM Tris–HCl buffer (pH 7.6). Homogenates were centrifuged at 20,000× g for 20 min (0–4 °C). Next, the cell pellet was resuspended in the Tris–HCl buffer and centrifuged again. Radioligand binding assays were performed in plates (MultiScreen/Millipore). The final incubation mixture (volume 300 μL) consisted of 240 μL of the tissue suspension, 30 μL of radioligand solution, and 30 μL of the buffer containing 7–8 concentrations of the tested compound. […] The incubation was terminated by rapid filtration through Whatman GF/C filters using a vacuum manifold (Millipore). The filters were then washed twice with the assay buffer and placed in scintillation vials with a liquid scintillation cocktail. Radioactivity was measured in a WALLAC 1409 DSA liquid scintillation counter (Perkin Elmer, Waltham, MA, USA). All the assays were made in duplicates and the inhibitory constants (Ki) were estimated.

[1] = tested on: adrenaline-induced arrhythmia in rats; details: administered intravenously; cited from earlier work

Row | Adrenergic Receptors—pKi α1 (α1-adrenoceptor) | Compound | ED50 (adrenaline-induced arrhythmia) [1] [mg/kg]
1 | 8.04 | Cc1ccc(N(CC2=NCCN2)c2cccc(O)c2)cc1 [Phentolamine, phentolamine, reference compound] | 
2 |  | COc1ccccc1OCCNCC(O)COc1cccc2[nH]c3ccccc3c12 (centres unmarked) [carvedilol] | 0.36
